Blank lines part the entries; values can stand above or below the molecule they belong to.
Molecular target: T1, ADAM 12-S (Homo sapiens, UniProt O43184)
T1 construct: The full-length human ADAM 12-S gene was cloned into plasmid (p1151); made in house; host or cells: Cos-7 cells (ATCC, CRL 1651)
T1 sequence (O43184 208-738 isoform O43184-2 limits assumed): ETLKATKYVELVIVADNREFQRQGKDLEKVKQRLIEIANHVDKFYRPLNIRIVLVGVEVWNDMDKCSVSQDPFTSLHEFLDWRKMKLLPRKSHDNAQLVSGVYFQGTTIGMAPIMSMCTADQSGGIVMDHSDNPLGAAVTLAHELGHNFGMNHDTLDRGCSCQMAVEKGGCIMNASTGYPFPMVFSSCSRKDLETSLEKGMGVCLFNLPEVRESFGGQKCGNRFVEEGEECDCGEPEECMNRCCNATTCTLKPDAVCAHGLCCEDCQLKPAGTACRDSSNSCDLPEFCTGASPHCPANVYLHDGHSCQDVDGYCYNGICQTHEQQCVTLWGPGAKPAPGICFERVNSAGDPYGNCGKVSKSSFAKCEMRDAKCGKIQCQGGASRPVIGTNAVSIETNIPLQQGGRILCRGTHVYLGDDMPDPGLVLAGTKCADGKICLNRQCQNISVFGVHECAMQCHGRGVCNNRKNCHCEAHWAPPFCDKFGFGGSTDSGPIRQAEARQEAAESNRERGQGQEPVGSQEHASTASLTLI
T1 sequence (O43184 29-207 partner limits assumed): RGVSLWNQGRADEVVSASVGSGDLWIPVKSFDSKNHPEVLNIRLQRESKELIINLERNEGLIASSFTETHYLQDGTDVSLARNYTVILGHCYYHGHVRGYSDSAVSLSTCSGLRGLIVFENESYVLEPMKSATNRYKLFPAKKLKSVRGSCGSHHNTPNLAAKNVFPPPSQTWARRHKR
Test: Inhibition of gelatin degradation by ADAM 12 (SDS-PAGE, Coomassie staining)
Format: biochemical
Conditions: ADAM 12 160 nM, 37° C., 18 h; for inhibition of gelatin degradation by ADAM 12: 30 μg gelatin
Experimental: The full-length human ADAM 12-S gene was cloned into plasmid (p1151) and transfection of Cos-7 cells (ATCC, CRL 1651) was conducted as previously described (5). Expressed recombinant ADAM 12-S secreted into the conditioned medium, was purified as previously described with minor modifications. Briefly, conditioned media from transfected Cos-7 cells was subjected to successive steps of SP Sepharose and ConA Sepharose chromatography as described (6). ADAM 12-S containing fractions from the ConA Sepharose column were pooled and after buffer exchange applied to a Vivapure H Mini Q column (VivaScience, Carlsbad, Calif.) pre-equilibrated with buffer A containing 0.05% CHAPS. Pure ADAM 12-S was detected in the flow-through fraction as determined by SDS-PAGE and immunoblot analysis.
Gelatin, Type IV collagen, fibronectin and casein-degrading activity of ADAM 12-S was measured as previously described (14). ADAM 12-S (1 μM) was mixed with non-reducing sample buffer and separated on a 10% polyacrylamide gel containing either 0.1% gelatin, 0.1% Type IV collagen or 0.02% fibronectin and a 12% polyacrylamide gel containing 0.1% casein. After electrophoresis, the gel was washed with 2.5% Triton X-100 for 30 min. Substrate digestion was conducted by incubating the gel in 50 mM Tris, pH 7.6, containing 5 mM CaCl2, 1 μM ZnCl2 and 0.02% NaN3 at 37° C. for 18 h. Gels were stained with 0.1% Coomassie and bands of enzyme activity were detected as zones of clearance on a background of uniform blue staining. […] For inhibition assays, ADAM 12 (160 nM) was incubated with 30 μg gelatin in assay buffer (50 mM Tris, pH 7.5) in the presence or absence of various inhibitors 5 mM 1, 10-phenanthroline, 5 mM EDTA, 1 mM Marimastat or two different concentrations (100 and 500 nM) of either TIMP-1, TIMP-2, TIMP-3 or TIMP-4 in a final volume of 30 μl at 37° C. for 18 h. Reactions were stopped with the addition of non-reducing sample buffer and the samples resolved by SDS-PAGE analysis followed by Coomassie staining.

[1] = inhibitor 100 and 500 nM (even at concentrations 5-fold higher than the enzyme)

inhibition of gelatin degradation by ADAM 12 (inhibitor 5 mM): inhibited
Molecule: c1cnc2c(c1)ccc1cccnc12 [1, 10-phenanthroline]

inhibition of gelatin degradation by ADAM 12 (inhibitor 5 mM): inhibited
Molecule: O=C(O)CN(CCN(CC(=O)O)CC(=O)O)CC(=O)O [EDTA]

inhibition of gelatin degradation by ADAM 12 (inhibitor 1 mM): partial inhibition
Molecule: CNC(=O)[C@@H](NC(=O)[C@H](CC(C)C)[C@H](O)C(=O)NO)C(C)(C)C [Marimastat]

inhibition of the gelatinase activity of ADAM 12 [1]: did not inhibit
Molecule: TIMP-1: endogenous inhibitor

inhibition of the gelatinase activity of ADAM 12 [1]: did not inhibit
B1: TIMP-4: endogenous inhibitor (protein, UniProt Q99727 30-224, looked up)
Metalloproteinase inhibitor 4: CSCAPAHPQQHICHSALVIRAKISSEKVVPASADPADTEKMLRYEIKQIKMFKGFEKVKDVQYIYTPFDSSLCGVKLEANSQKQYLLTGQVLSDGKVFIHLCNYIEPWEDLSLVQRESLNHHYHLNCGCQITTCYTVPCTISAPNECLWTDWLLERKLYGYQAQHYVCMKHVDGTCSWYRGHLPLRKEFVDIVQP

inhibition of the gelatinase activity of ADAM 12 (inhibitor 500 nM): effective inhibitor
B2: TIMP-3: endogenous inhibitor (protein, UniProt P35625 24-211, looked up)
Metalloproteinase inhibitor 3: CTCSPSHPQDAFCNSDIVIRAKVVGKKLVKEGPFGTLVYTIKQMKMYRGFTKMPHVQYIHTEASESLCGLKLEVNKYQYLLTGRVYDGKMYTGLCNFVERWDQLTLSQRKGLNYRYHLGCNCKIKSCYYLPCFVTSKNECLWTDMLSNFGYPGYQSKHYACIRQKGGYCSWYRGWAPPDKSIINATDP

Source: US20180156808A1, “METHODS FOR DIAGNOSIS AND PROGNOSIS OF CANCERS OF EPITHELIAL ORIGIN” (Children's Medical Center Corporation, priority 2004, published 2018)
